Results as given in patent EP0940081A1, “Combinations of active agents and disinfectants, preservatives and antiseptics containing same” (Bode Chemie GmbH & Co., priority 1998, dated 1999).
Read-outs that look alike come from different tables or passages of the source.

How the values were obtained:
Type in all cases: cell-based
[1] = tested on: Enterococcus faecium ATCC 6057; experiment: Röhrchenverdünnungstest, bacteriostatic activity; set-up: key: +: Wachstum; -: kein Wachstum; details: 72 h bei 37 °C
Protocol: (§1) Methodik der Prüfung auf bakteriostatische und fungistatische Wirksamkeit im Röhrchenverdünnungtest: In sterile Reagenzröhrchen werden je 5 ml der Verdünnungen der Prüfsubstanzen in Wasser standardisierter Härte mit 5 ml doppelt konzentrierter Caseinpepton-Sojamehl-Pepton-Lösung (CSL) vermischt. Zur Bestimmung der bakteriostatischen Wirkung werden die Röhrchen durch Zugabe von 0,1 ml einer 1 : 10 mit CSL verdünnten, 24 h bei 37 °C bebrüteten CSL-Kultur beimpft. Zur Prüfung der fungistatischen Wirkung werden je 0,1 ml einer unverdünnten, 72 h bei 37 °C bebrüteten CSL-Kultur von Candida albicans verwendet. Die Auswertung erfolgt nach einer Bebrütung von 72 h bei 37 °C. Es erfolgte außerdem eine Nachbeimpfung von CSA-Platten durch Ausstreichen der ? 72 h-Testlösungen", um das Wachstum der Testkeime zu beurteilen. Folgende Testkeime wurden eingesetzt: Sa: Staphylococcus aureus ATCC 6538 Ef: Enterococcus faecium ATCC 6057 Ec: Escherichia coli ATCC 11229 Pm: Proteus mirabilis ATCC 14153 Pa: Pseudomonas aeruginosa ATCC 15442 Ca: Candida albicans ATCC 10231

[2] = tested on: Escherichia coli ATCC 11229; experiment: Röhrchenverdünnungstest, bacteriostatic activity; set-up: key: +: Wachstum; -: kein Wachstum; details: 72 h bei 37 °C
Protocol: as §1

[3] = tested on: Proteus mirabilis ATCC 14153; experiment: Röhrchenverdünnungstest, bacteriostatic activity; set-up: key: +: Wachstum; -: kein Wachstum; details: 72 h bei 37 °C
Protocol: as §1

[4] = tested on: Pseudomonas aeruginosa ATCC 15442; experiment: Röhrchenverdünnungstest, bacteriostatic activity; set-up: key: +: Wachstum; -: kein Wachstum; details: 72 h bei 37 °C
Protocol: as §1

[5] = tested on: Staphylococcus aureus ATCC 6538; experiment: Röhrchenverdünnungstest, bacteriostatic activity; set-up: key: +: Wachstum; -: kein Wachstum; details: 72 h bei 37 °C
Protocol: as §1

[6] = tested on: Candida albicans ATCC 10231; experiment: Röhrchenverdünnungstest, fungistatic activity; set-up: key: +: Wachstum; -: kein Wachstum; details: 72 h bei 37 °C
Protocol: as §1

[7] = tested on: Candida albicans ATCC 10231; experiment: Quantitative suspension test, fungicidal activity (DGHM guideline)
Excerpt: Methodik: Untersucht wurde ein Gemisch G 1 von 99,4 % MMPP und 0,6 % Decylthiouroniumbromid und ein Gemisch G 2 von 99,7 % MMPP und 0,3 % Decylthiouroniumbromid im Vergleich zu MMPP als Monowirkstoff entsprechend der Richtlinie für die Prüfung und Bewertung chemischer Desinfektionsverfahren der Deutschen Gesellschaft für Hygiene und Mikrobiologie. Testkeim: Candida albicans ATCC 10231 Enthemmer: Tween, Lecithin, Cystein (TLC)

Staphylococcus aureus = experiment: Agar diffusion test, inhibition zone; details: no Decylthiouroniumbromid im Agar, 24 h
Protocol: Methodik: Decylthiouroniumbromid wurde in abgestuften Konzentrationen im Agar inkorporiert. In Stanzlöcher wurde eine Natriumperboratlösung ohne und mit Aktivierung pipettiert. Die Platten wurden mit Staphylococcus aureus beimpft und 24 h bebrütet. Der entstehende Hemmhof wurde gemessen.

With `O=C(O)c1ccccc1C(=O)OO` [MMPP, Magnesiummonoperphthalat] the “Wachstum des Testkeims (Minimale Hemmkonzentrationen)” value (shortened to “Wachstum des Testkeims”) ([1]; geprüfte Konzentration 0,85%) was “-”, the “Wachstum des Testkeims” value ([1]; geprüfte Konzentration 0,425%) was “+” and the “Wachstum des Testkeims” value ([2]; geprüfte Konzentration 0,85%) was “-”. The “Wachstum des Testkeims” value ([2]; geprüfte Konzentration 0,425%) was “-”, the “Wachstum des Testkeims” value ([3]; geprüfte Konzentration 0,85%) was “-” and the “Wachstum des Testkeims” value ([3]; geprüfte Konzentration 0,425%) was “+”. For the same compound, the “Wachstum des Testkeims” value ([4]; geprüfte Konzentration 0,85%) was “-”, the “Wachstum des Testkeims” value ([4]; geprüfte Konzentration 0,425%) was “-” and the “Wachstum des Testkeims” value ([5]; geprüfte Konzentration 0,5%) was “+”. For the same compound, the “Wachstum des Testkeims” value ([5]; geprüfte Konzentration 0,6%) was “-”, the “Wachstum des Testkeims” value ([5]; geprüfte Konzentration 0,85%) was “-” and the “Wachstum des Testkeims” value ([5]; geprüfte Konzentration 0,425%) was “+”. For the same compound, the “Wachstum des Testkeims” value ([6]; geprüfte Konzentration 0,85%) was “-”, the “Wachstum des Testkeims” value ([6]; geprüfte Konzentration 0,425%) was “+” and the log reduction at 0.5 % ([7]; ATCC10231, 5 min, 0,5 %, x = 5, read-out: log. Reduktionsfaktoren bei einer Einwirkungszeit von x min) was 0.55. The log reduction at 0.6 % ([7]; ATCC10231, 5 min, 0,6 %, x = 5, read-out: log. Reduktionsfaktoren bei einer Einwirkungszeit von x min) was 0.83, the log reduction at 0.425 % ([7]; ATCC10231, 5 min, 0,425 %, x = 5, read-out: log. Reduktionsfaktoren bei einer Einwirkungszeit von x min) was 1 and the log reduction at 0.5 % ([7]; ATCC10231, 0.25 h, 0,5 %, x = 15, read-out: log. Reduktionsfaktoren bei einer Einwirkungszeit von x min) was 0.88. The log reduction at 0.6 % ([7]; ATCC10231, 0.25 h, 0,6 %, x = 15, read-out: log. Reduktionsfaktoren bei einer Einwirkungszeit von x min) was 0.91, the log reduction at 0.425 % ([7]; ATCC10231, 0.25 h, 0,425 %, x = 15, read-out: log. Reduktionsfaktoren bei einer Einwirkungszeit von x min) was 1.5 and the log reduction at 0.5 % ([7]; ATCC10231, 0.5 h, 0,5 %, x = 30, read-out: log. Reduktionsfaktoren bei einer Einwirkungszeit von x min) was 1.28. For the same compound, the log reduction at 0.6 % ([7]; ATCC10231, 0.5 h, 0,6 %, x = 30, read-out: log. Reduktionsfaktoren bei einer Einwirkungszeit von x min) was 1.7 and the log reduction at 0.425 % ([7]; ATCC10231, 0.5 h, 0,425 %, x = 30, read-out: log. Reduktionsfaktoren bei einer Einwirkungszeit von x min) was 3.6.

Compound `O=BO[O-].[Na+]` [Perborat, Natriumperborat] has a Hemmhofgröße (Staphylococcus aureus; Perboratkonzentration im Stanzloch 0,5%, Aktivator ja) of 13 mm, a Hemmhofgröße (Staphylococcus aureus; Perboratkonzentration im Stanzloch 0,5%, Aktivator nein) of 0 mm and a Hemmhofgröße (Staphylococcus aureus; Perboratkonzentration im Stanzloch 0,25%, Aktivator ja) of 0 mm. The Hemmhofgröße (Staphylococcus aureus; Perboratkonzentration im Stanzloch 0,25%, Aktivator nein) was 0 mm, the Hemmhofgröße (Staphylococcus aureus; Perboratkonzentration im Stanzloch 1%, Aktivator ja) was 15 mm and the Hemmhofgröße (Staphylococcus aureus; Perboratkonzentration im Stanzloch 1%, Aktivator nein) was 11 mm. The Hemmhofgröße (Staphylococcus aureus; Perboratkonzentration im Stanzloch 2%, Aktivator ja) was 19 mm and the Hemmhofgröße (Staphylococcus aureus; Perboratkonzentration im Stanzloch 2%, Aktivator nein) was 13 mm.
